The results in this text go back to patent US20250092015A1, “A 6-substituted Chiral Pure Difluoropiperidine Quinazoline Derivative And Its Preparation Method” (WEISHANG (SHANGHAI) BIO-PHARMACEUTICAL CO., LTD., priority 2022, published 2025).

Series [1] concerns PC-9 tumor cell (EGFR Del 19 mutation). In words: CellTiter-Glo (CTG) cell viability, PC-9 cells. In kind it is cell-based. The following applies: Homo sapiens, 72 h of drug addition, read-out: Growth inhibition IC50, PC-9 tumor cell (EGFR Del 19 mutation). The method, then:
(§1) Cell viability of tumor cells and gliomas with EGFR-activated mutant (Exon 19 Del, PC-9 cell; Exon 21 L858R, H3255 cell) protein was detected using CellTiter-Glo (CTG) assay; approximately 5000 cells were placed in each blank of the 96-well plate. The diluted compound was added proportionally after 16 h and equilibrated at room temperature for 30 min after 72 h of drug addition. 100 µL of CellTiter-Glo reagent was added to each well and mixed well on an orbital shaker for 2 min to induce cell lysis. The plate was incubated at room temperature for 10 min to stabilize the luminous signal. The luminous signal was recorded on a TECAN Infinite M1000 Pro instrument.

Series [2] deals with H3255 tumor cell (EGFR L858R mutation). Kind of series: CellTiter-Glo (CTG) cell viability, H3255 cells. In kind it is cell-based. The following applies: Homo sapiens, NCI-H3255, 72 h of drug addition, read-out: Growth inhibition IC50, H3255 tumor cell (EGFR L858R mutation). As to the method: as §1
For orientation: ATP-based viability assays read luminescence as a measure of living cells.

The test system of series [3] is Human glioma tumor cell with EGFRVIII mutation. In words: CellTiter-Glo (CTG) cell viability, glioma cells. In kind it is cell-based. To be noted: 72 h of drug addition, read-out: Growth inhibition IC50, human glioma tumor cell with EGFRVIII mutation. As to the method: as §1
In series [4] the test system is PC-9luc tumor cells (non-small cell lung cancer with Exon 19 Del). In words: Survival in mouse model of intracranial meningeal metastasis. The format is in vivo. The following applies: PO, BID, PC-9luc seeded into brain of mice, FIG. 3. The method, then: PC-9luc tumor cells (non-small cell lung cancer with Exon 19 Del, about 2×10^5 cells) were seeded into the brain of mice, and administration was started approximately 11 days after tumor growth. Group 1 was the control group (8 mice), without any medication. Group 2 received Iressa (8 mice), 15 mg/kg, PO. Group 3 received (R)-6-((3,3-difluoro-1-methylpiperidin-4-yl)oxy)-N-(3-ethynyl-2-fluorophenyl)-7-methoxyquinazoline-4-amine monotherapy group (8 mice), 10 mg/kg, PO, BID. Group 4 received (R)-6-((3,3-difluoro-1-methylpiperidin-4-yl)oxy)-N-(3-ethynyl-2-fluorophenyl)-7-methoxyquinazoline-4-amine monotherapy group (8 mice), 3 mg/kg, PO, BID.

Series [5] relates to patient's primary tumor tissue GBM (EGFRV3 mutated brain tumor). In words: Survival in mouse intracranial PDX model. The format is in vivo, mice. The following applies: 30 mg/kg, PO, BID, treatment more than 50 d, FIG. 2. As to the method:
The patient's primary tumor tissue GBM (brain tumor, about 50,000 cells) was seeded into the brain of mice. Administration began after the tumor grew for about 10 d and treatment lasted for more than 50 d. In the pharmacodynamic study of tumor transplanted animal model with EGFRV3 mutated brain tumor from patient's primary tumor tissue in mice, Group 1 was the control group (8 mice) without any medication. Group 2 received (R)-6-((3,3-difluoro-1-methylpiperidin-4-yl)oxy)-N-(3-ethynyl-2-fluorophenyl)-7-methoxyquinazoline-4-amine monotherapy group (8 mice), 30 mg/kg, PO, BID.

Series [6] is described as follows: Rate of crossing blood-brain barrier in rats. To be noted: 4 h after administration. In kind it is in vivo. The method, then:
To determine whether (R)-6-((3,3-difluoro-1-methylpiperidin-4-yl)oxy)-N-(3-ethynyl-2-fluorophenyl)-7-methoxyquinazoline-4-amine prepared by the present disclosure is able to cross the blood-brain barrier (BBB), the test compound was administered to rats. After 4 h of administration, the rats were killed and blood and brain tissues were collected to test the compound concentration. Brain osmosis is defined as the ratio of the concentration of compounds in brain tissue to the concentration in plasma. The rate of crossing blood-brain barrier is the ratio of free drug concentration in brain tissue to free drug concentration in plasma. P-glycoprotein is an efflux protein at the blood-brain barrier that excretes P-glycoprotein substrate from the brain. Breast cancer resistance protein is an efflux protein at the blood-brain barrier that excretes […].

Series [7] deals with P-glycoprotein (Homo sapiens, UniProt P08183). Kind of series: P-glycoprotein efflux substrate test. In kind it is in vitro ADME.
The target in series [8] is T1, Breast cancer resistance protein (Homo sapiens, UniProt Q9UNQ0).
T1 sequence (Q9UNQ0 1-655): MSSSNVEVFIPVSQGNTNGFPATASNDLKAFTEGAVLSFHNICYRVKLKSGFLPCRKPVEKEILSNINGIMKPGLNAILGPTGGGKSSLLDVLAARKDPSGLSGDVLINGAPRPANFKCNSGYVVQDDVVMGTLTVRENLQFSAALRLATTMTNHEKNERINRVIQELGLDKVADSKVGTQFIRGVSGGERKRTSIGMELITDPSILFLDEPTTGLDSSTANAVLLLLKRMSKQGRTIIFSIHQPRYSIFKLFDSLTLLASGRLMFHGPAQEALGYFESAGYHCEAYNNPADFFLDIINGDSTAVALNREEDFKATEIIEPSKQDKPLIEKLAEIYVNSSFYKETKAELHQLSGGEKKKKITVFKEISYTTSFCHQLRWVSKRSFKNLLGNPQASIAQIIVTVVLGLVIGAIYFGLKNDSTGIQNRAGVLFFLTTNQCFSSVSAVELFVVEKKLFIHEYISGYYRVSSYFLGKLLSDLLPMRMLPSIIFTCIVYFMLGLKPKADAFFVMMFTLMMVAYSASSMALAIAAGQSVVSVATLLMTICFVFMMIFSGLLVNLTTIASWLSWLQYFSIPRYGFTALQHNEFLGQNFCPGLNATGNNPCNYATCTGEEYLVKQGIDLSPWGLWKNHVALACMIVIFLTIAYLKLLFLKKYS
In words: Breast cancer resistance protein efflux substrate test. The format is in vitro ADME.

Series [9] is described as follows: Pharmacokinetic study of rats (bioavailability). To be noted: rat, blood, 1-2 mg/kg iv vs 2-40 mg/kg PO. In kind it is in vivo. The method, then: In the pharmacokinetic study of rats, Group 1 (3 rats) was administrated with 1-2 mg/kg, iv, and Group 2 (3 rats) was administrated with 2-40 mg/kg, PO. Blood was sampled at 7 time points (0.25, 0.5, 1, 2, 4, 8 and 16 hours points) to measure the concentration of the quinazoline derivatives (I) prepared by the present disclosure in blood and calculate the peak area and half-life. Bioavailability is calculated as (peak area of oral drug/oral dose)/(peak area of intravenous drug/intravenous dose)×100%.

Series [10] deals with EGFR enzyme (Homo sapiens, UniProt P00533). In words: EGFR enzyme ADP-Glo mechanism of action study (ATP titration). The format is biochemical. The following applies: PolyE4Y1 substrate, ATP diluted from 600 uM, FIG. 4. The method, then:
In the study of the mechanism of action of (R)-6-((3,3-difluoro-1-methylpiperidin-4-yl)oxy)-N-(3-ethynyl-2-fluorophenyl)-7-methoxyquinazoline-4-amine prepared by the present disclosure to inhibit EGFR, EGFR enzyme was added to a solution of PolyE4Y1 on a 384-well plate from 6 concentrations diluted at an equal ratio of 0.4 nM (2-fold) to 0.0125 nM and 0 concentration, and incubated for 15 min. ATP was added at 7 concentrations diluted at an equal ratio of 600 uM (2-fold) for reaction for 60 min, and then ADP-Glo reagent and detection reagent were added for 40 min to measure RLU signal. […] The benefits of this mechanism of action are obvious, with minimal side effects and anti-drug resistance.

Where [11] appears, read: listed as -1-3,3-difluoro-1-methylpiperidin-4-yl)oxy)-N-(3-ethynyl-2-fluorophenyl)-7-metho.

Like-named read-outs stand apart in the source and are kept apart here. Bounds are passed on as bounds.

P-glycoprotein, sequence (P08183 whole entry): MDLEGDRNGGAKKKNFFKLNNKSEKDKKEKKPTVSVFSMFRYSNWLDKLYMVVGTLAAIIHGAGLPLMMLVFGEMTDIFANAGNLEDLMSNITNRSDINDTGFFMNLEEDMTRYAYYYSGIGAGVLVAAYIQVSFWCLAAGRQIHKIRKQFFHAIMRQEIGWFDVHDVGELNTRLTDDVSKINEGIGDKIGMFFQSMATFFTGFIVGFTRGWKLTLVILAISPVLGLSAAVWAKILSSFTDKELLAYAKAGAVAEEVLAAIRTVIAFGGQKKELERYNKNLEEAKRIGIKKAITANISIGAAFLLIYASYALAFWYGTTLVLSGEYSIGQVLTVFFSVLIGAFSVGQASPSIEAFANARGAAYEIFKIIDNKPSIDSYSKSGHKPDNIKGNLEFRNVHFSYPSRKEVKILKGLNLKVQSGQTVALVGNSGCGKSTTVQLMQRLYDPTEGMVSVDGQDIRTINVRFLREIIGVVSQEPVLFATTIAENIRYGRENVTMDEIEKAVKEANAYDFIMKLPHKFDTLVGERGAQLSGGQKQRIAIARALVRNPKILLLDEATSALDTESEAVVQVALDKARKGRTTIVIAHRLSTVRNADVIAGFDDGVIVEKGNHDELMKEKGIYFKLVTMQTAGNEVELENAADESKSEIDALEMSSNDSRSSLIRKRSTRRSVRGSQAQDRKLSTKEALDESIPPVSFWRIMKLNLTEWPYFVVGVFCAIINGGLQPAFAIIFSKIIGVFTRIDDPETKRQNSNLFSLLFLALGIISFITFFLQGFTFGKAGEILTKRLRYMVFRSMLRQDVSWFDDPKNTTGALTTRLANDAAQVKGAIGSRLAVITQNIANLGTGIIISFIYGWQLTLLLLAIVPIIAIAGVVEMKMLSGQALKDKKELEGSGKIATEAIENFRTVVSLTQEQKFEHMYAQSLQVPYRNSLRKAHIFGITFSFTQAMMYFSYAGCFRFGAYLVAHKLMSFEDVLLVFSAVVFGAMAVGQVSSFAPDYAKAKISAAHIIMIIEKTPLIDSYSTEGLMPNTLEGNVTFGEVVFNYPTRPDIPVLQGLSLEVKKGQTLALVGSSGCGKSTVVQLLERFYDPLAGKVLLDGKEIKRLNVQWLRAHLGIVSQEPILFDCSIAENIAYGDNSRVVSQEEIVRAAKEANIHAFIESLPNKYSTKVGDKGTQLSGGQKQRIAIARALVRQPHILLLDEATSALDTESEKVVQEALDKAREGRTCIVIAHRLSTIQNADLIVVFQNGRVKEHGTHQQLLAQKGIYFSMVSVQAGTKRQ
EGFR enzyme, sequence (P00533 25-1210): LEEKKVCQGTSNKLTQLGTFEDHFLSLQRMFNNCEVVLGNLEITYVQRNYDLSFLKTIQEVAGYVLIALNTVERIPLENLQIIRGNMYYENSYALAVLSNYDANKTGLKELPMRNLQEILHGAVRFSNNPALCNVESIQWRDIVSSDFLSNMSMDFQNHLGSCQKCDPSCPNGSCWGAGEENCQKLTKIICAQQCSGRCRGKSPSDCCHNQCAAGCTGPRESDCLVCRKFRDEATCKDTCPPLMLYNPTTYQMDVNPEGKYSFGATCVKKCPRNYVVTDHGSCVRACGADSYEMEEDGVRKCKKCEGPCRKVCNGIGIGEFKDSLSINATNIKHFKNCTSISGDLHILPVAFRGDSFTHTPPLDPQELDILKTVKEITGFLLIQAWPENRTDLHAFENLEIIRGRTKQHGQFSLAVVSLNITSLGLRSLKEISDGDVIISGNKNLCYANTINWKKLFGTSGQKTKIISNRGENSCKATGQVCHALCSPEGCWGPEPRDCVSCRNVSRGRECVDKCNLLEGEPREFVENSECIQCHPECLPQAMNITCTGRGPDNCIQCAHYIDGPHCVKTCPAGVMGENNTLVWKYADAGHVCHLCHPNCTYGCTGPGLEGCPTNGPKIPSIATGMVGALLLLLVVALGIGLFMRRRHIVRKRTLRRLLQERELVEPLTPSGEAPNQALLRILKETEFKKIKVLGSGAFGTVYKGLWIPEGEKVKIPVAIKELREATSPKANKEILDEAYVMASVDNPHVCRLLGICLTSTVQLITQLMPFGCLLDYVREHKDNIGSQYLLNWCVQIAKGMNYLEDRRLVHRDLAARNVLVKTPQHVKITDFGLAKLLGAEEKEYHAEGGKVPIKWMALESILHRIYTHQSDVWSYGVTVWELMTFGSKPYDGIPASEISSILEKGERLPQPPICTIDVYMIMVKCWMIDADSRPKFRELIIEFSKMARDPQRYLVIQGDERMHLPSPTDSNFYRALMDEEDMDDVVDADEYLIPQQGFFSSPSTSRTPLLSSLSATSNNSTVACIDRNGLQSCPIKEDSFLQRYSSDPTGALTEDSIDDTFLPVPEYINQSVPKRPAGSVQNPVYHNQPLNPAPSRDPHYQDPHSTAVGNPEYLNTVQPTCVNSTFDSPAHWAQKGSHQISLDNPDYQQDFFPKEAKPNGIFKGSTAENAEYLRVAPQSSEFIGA

The term IC50 denotes the concentration at which inhibition is half-maximal. For orientation: bioavailability means dose-corrected exposure relative to a reference, in per cent. Higher therefore signals good availability. Consider `C#Cc1cccc(Nc2ncnc3cc(OC)c(O[C@@H]4CCN(C)CC4(F)F)cc23)c1F` [(R)-6-((3,3-difluoro-1-methylpiperidin-4-yl)oxy)-N-(3-ethynyl-2-fluorophenyl)-7-methoxyquinazoline-4-amine], for which the values for the IC50 in series [1], in series [2] and in series [3] were 8 nM, 2 nM and 10 nM, respectively. Further, the Survival result in series [4] (Group 3, 10 mg/kg) is on record as “significantly improved”; in series [4] (Group 4, 3 mg/kg) it was “significantly improved”. Besides, in series [5], the “Survival compared to control group” value is listed as “significantly prolonged”. For the same compound, the “Rate of crossing blood-brain barrier (ratio of free drug concentration in brain tissue to free drug concentration in plasma)” value in series [6] is listed as more than 50%. In addition, in [6] (rat, brain tissue and plasma (free drug concentrations), read-out: Rate of crossing blood-brain barrier (ratio of free drug concentration in brain tissue to free drug concentration in plasma)), the Kp at 4 h is more than 0.5. Moreover, the P-glycoprotein efflux substrate result is reported as “No” in series [7] and “not P-glycoprotein substrate” in series [7] (setting [11]). The figures for the “Breast cancer resistance protein efflux substrate” value in series [8] and in [8] (setting [11]) were “No” and “not P-glycoprotein substrate or breast cancer resistance protein efflux substrate”, respectively. In addition, the bioavailability in series [9] was more than 35%. For the same compound, in series [10], the “Mechanism of action of EGFR inhibition” value was “non-ATP competitive”.
